According to patent US11591300B2, “Oxazole containing compounds as activators of IDO1 and AhR” (The Brigham and Women's Hospital, Inc., priority 2017, dated 2023):
Entries after “also recorded” stand apart in the source; their conditions may differ. Where two headings read alike, the source gives them in different places.

What was measured:
MODE-K cells [1] = assay: CD1d-restricted IL-10 production in MODE-K:NKT cell hybridoma co-culture; assay type: cell-based, mouse; conditions: for compound induced inhibition of CD1d-restricted IL-10 production when AhR expression is silenced / decrease of IL-10 production when AhR was silenced: AhR siRNA; for compound induced inhibition of CD1d-restricted IL-10 production when AhR expression is silenced: IEC:iNKT cell co-cultures; for IL-10 production / decrease of IL-10 production when AhR was silenced: tryptophan-deficient conditions supplemented with kyneurenic acid; for epithelial derived IL-10: no exogenous α-GC
MODE-K cells [2] = assay: Relative transcript abundance of target genes in MODE-K cells conditioned with compounds
Excerpt: 4-ethoxymethylene-2-phenyl-2-oxazol-5-one, (referred to as oxazolone, FIG. 1A) has been widely utilized in models of contact hypersensitivity and when applied to the mucosa has been proposed to cause colitis through its properties as a hapten (Gorbachev and Fairchild 2001). However to date there is limited evidence for hapten-specific antibody production or responses following topical oxazolone sensitization or hapten modified autologous proteins or luminal antigens identified at mucosal sites (Singleton et al. 2016, Yanaba et al. 2008, Wirtz et al. 2007). […] It was then determined whether oxazolone could affect the expression of these transcripts in the intestinal epithelium in a cell intrinsic manner by directly stimulating an immortalized intestinal epithelial cell line (IEC) derived from mouse small intestine, MODE-K, with oxazolone.
To test this, a systematic in vitro system was devised to assess transcriptional and CD1d-restricted responses in IECs in response to stimulation with dietary OxC structures, including 2,4,5-trimethyl-2,5-dihydro-1,3-oxazole (referred to as TMO, FIG. 1A) found in coffee, peanuts, meats and utilized as a food additive, which lacks the 2-phenyl ring, 5-ketone, and 4-ethoxymethylene present in oxazolone (Vitzthum et al. 1975, Stoffesima et al. 1968, Lee et al. 1981, Chang et al. 1968, Ho and Hartman 1968).

recombinant IDO1 = recombinant IDO1 (Homo sapiens, UniProt P14902); assay: Recombinant IDO1 conversion of L-tryptophan to formyl-kyneurenine; assay type: biochemical; conditions: compared to control (TMC) or vehicle
primary hepatocytes = assay: IL-10 production from primary hepatocytes co-cultured with 24.7 iNKT hybridoma; conditions: response to iNKT cells in the presence of α-GC
C57Bl/6 mice [3] = assay: Intra-rectal administration, colonic inflammation in vivo; parameters: species or system mouse; conditions: for IL-10 production in colonic explants: AhrΔIEC compared to wildtype controls, after intra-rectal challenge; for host protection, disease manifestations / weight loss: AhrΔIEC relative to Ahrfl/fl mice
Procedure: It was tested whether a dietary sourced minimal oxazole structure was sufficient to induce intestinal inflammation in vivo. […] To confirm this, the ability of oxazolone skin pre-sensitization to affect the responses to rectal challenge with TMO and vice-versa (FIG. 9D).
Next, it was tested whether B17 microcin derivatives could induce intestinal inflammation in vivo. Therefore, adequate quantities of a minimal B17 derivative (termed frag-oz, FIG. 2D) were synthesized to perform in vivo experiments and challenged animals via intra-rectal administration. […] These studies identify an oxazole containing microbial mimic that promotes CD1d-dependent intestinal inflammation independent of its classical anti-microbial activity.
These studies reveal a novel role for epithelial derived AhR signals in promoting mucosal inflammation when exposed to OxC.

IECs = assay: LC-MS of deuterated L-trp (D5-Trp) metabolites in IEC lysates; assay type: cell-based; conditions: within 6 hours of exposure
Procedure: IDO1 is a rate-limiting enzyme involved in tryptophan catabolism that generates formyl-kyneurenine which can be further metabolized into a variety of AhR agonists (Higuchi and Hayaishi Arch Biochem Biophys 1967, Nguyen and Bradfield 2008, Zelante et al. 2014). […] To specifically identify these tryptophan derived products, IECs were cultured with deuterated L-trp (D5-Trp) and performed high performance liquid chromatography mass spectrometry (LC-MS) on lysates stimulated with oxazolone, TMO, frag-oz or TMC control (FIG. 5C). […] Taken together these latter studies are consistent with a model in which exposure of IECs to oxazole containing compounds leads to the activation of IDO1 and generation of tryptophan-derived metabolites that induce the AhR pathway to downregulate CD1d-restricted responses associated with the production of IL-10 (FIG. 6).

human IDO1(hIDO1) = target: T1, human IDO1(hIDO1) (Homo sapiens, UniProt P14902); assay: In vitro screening assay for IDO1 enhancers; assay type: biochemical
T1 construct: made in house
Procedure: An in vitro screen for IDO1 enhancers was developed based on the following categories: Synthetic, dietary, and microbial compounds with structural similarity to oxazole template.
SDS-PAGE gel under reducing conditions showing that hIDO1 was purified to >95% purity after HiTrap HP chelating column.
HiPrep 16/60 Sephacryl S-200 HR column (GE Healthcare Life Sciences) size-exclusion chromatography in a buffer containing 10 mM HEPES buffer, 150 mM NaCl pH 7.0 of hIDO1 showing single peak and peak maximum of purified protein at 126.2 minutes.
Sizing fractions a3-a11 were checked for Heme absorbance at 402 and 280 nm. Fractions showing >2.0 Heme ratio were pooled and concentrated, and final 1.5 mg/ml concentrated protein was used for final bound heme estimation. A ratio of 2.22 at 402/280 nm confirmed heme binding to purified recombinant hIDO1 protein.

DNA gyrase = DNA gyrase (Escherichia coli, UniProt P0AES4+P0AES6); conditions: in vitro; literature (Collin et al. 2013; Yorgey et al. 1994, Li et al. 1996); cited from earlier work
MODE-K cells [4] = assay: Surface CD1d loaded with α-GC (L363 antibody staining) in MODE-K cells; assay type: cell-based, mouse; conditions: for compound induced reduction of cell surface CD1d lipid antigen loading when AhR expression is silenced: AhR siRNA
Excerpt: (§1) In light of the decreased MTP expression observed in oxazolone treated IECs (FIG. 1B) and given that MTP loss alters the ability of CD1d to acquire exogenous antigens, such as α-GC, and CD1d elicited IL-10 responses by epithelial cells (Dougan et al. 2005, Dougan et al. 2007, Zeissig et al 2017, Sagiv et al. 2007, Brozovic et al. 2004, Olszak et al. 2014), it was investigated whether CD1d expression and lipid loading on oxazolone conditioned IECs.

[5] = test system: epithelial enriched colon fractions; conditions: after intra-rectal oxazolone challenge; Olszak et al. 2014; cited from earlier work
[6] = test system: bone marrow-derived dendritic cells; assay: IFN-γ production in bone marrow-derived dendritic cell : 24.7 iNKT hybridoma co-culture; assay type: cell-based; conditions: bone marrow-derived dendritic cells with 24.7 iNKT hybridoma and α-GC
C57Bl/6 mice [7] = conditions: germ free animals; Olszak et al. 2012; cited from earlier work
[8] = target: T2, aryl hydrocarbon receptor (AhR) (Mus musculus, UniProt P30561); assay: AhR firefly luciferase reporter in IECs; assay type: cell-based; conditions: compared to vehicle or 1,2,4-trimethylcyclopentane
T2 construct: IECs were transfected with an AhR firefly luciferase reporter; endogenous in cells; host or cells: MODE-K (mouse intestinal epithelial cell line)
T2 sequence (P30561 10-848): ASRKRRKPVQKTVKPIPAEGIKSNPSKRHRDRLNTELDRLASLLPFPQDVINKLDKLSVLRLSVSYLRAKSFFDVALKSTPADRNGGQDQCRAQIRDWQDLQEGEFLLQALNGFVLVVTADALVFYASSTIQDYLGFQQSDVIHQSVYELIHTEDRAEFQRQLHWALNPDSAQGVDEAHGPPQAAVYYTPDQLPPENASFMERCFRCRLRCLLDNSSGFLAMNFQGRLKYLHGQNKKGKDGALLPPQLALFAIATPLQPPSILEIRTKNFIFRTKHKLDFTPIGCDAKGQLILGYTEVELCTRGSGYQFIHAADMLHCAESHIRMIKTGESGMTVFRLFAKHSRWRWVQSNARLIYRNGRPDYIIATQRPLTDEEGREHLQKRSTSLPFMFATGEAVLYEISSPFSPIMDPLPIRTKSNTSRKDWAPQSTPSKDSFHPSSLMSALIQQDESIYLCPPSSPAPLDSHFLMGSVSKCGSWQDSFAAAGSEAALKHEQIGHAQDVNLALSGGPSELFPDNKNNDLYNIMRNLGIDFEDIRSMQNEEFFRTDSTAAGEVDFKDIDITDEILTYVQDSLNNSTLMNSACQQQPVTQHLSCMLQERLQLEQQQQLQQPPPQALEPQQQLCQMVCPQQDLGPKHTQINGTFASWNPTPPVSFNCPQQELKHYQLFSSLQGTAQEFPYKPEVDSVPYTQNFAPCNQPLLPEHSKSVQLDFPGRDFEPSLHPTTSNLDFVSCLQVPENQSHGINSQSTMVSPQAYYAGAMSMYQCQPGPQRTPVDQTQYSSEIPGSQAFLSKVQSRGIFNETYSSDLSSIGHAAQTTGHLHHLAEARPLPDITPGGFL

MODE-K cells [9] = assay: Surface and intracellular CD1d protein expression in MODE-K cells (flow cytometry); assay type: cell-based, mouse; conditions: IECs stimulated with compound
Excerpt: as §1

[10] = IECs cultured in tryptophan-deficient media
[11] = tryptophan-deficient media supplemented with exogenous L-tryptophan
[12] = MODE-K cells conditioned with compound, normalized to β-actin
[13] = IEC enriched colonic fractions after intra-rectal administration
[14] = intra-rectal administration, wildtype

Chain of recombinant IDO1 (P14902 whole entry, species assumed): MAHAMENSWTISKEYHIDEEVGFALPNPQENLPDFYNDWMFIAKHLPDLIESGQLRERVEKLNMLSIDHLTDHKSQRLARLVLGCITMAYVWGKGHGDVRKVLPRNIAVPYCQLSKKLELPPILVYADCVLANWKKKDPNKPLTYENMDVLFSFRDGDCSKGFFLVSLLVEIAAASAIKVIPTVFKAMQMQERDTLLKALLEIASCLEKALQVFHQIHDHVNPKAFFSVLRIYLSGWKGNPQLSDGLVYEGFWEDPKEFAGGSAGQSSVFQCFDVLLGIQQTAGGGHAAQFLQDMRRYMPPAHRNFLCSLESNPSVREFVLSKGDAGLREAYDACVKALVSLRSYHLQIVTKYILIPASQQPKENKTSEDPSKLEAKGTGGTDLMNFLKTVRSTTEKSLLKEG
Chain of DNA gyrase (P0AES4 whole entry, one chain of several): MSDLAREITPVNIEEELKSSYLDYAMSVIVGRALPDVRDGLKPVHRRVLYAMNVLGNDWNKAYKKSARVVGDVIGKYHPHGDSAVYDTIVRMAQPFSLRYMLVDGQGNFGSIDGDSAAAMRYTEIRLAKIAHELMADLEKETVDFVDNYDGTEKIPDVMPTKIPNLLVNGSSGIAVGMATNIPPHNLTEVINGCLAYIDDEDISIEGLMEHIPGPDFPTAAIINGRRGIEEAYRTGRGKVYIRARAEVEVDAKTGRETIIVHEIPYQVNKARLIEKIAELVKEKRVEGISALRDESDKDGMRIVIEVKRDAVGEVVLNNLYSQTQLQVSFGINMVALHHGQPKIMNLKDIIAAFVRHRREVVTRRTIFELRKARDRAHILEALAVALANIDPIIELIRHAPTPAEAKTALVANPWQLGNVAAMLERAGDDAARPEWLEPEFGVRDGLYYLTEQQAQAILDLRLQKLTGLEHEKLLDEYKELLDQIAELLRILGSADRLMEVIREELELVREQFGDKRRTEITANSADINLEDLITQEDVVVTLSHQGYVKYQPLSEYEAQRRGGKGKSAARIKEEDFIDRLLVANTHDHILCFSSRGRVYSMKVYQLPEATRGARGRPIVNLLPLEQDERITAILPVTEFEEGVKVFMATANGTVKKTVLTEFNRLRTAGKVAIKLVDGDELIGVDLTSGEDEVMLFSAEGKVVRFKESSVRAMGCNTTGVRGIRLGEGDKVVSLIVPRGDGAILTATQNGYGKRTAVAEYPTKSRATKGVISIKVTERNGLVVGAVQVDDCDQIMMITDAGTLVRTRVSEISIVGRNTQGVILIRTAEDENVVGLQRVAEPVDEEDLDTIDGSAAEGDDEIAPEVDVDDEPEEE
T1 sequence (P14902 whole entry): as the sequence (P14902 whole entry, species assumed) above

CC(=O)NCc1nc(C(N)=O)co1 [frag-oz]
compound induced inhibition of CD1d-restricted IL-10 production when AhR expression is silenced (MODE-K cells [1]): reversed
CD1d-restricted IL-10 production (MODE-K cells [1]; [10]): no longer attenuated
IL-10 production (MODE-K cells [1]): decreased IL-10 production
decrease of IL-10 production when AhR was silenced (MODE-K cells [1]): reduced when AhR was silenced
CD1d-restricted IL-10 production (MODE-K cells [1]; [11]): attenuation of CD1d-restricted IL-10 production
Cyp1a1 transcripts (MODE-K cells [2]): induced expression of these genes in vitro and in vivo
Ido1 transcripts (MODE-K cells [2]; [12]): induced expression of these genes in vitro and in vivo
ability of IDO1 to convert tryptophan to formyl-kyneurenine (recombinant IDO1): enhanced
compound induced inhibition of IL-10 production in hepatocytes from Ahr−/− mice (primary hepatocytes): resistance
IL-10 production in colonic explants (C57Bl/6 mice [3]): elevated IL-10 production
host protection, disease manifestations (C57Bl/6 mice [3]; intra-rectal challenge): conferred host protection
weight loss (C57Bl/6 mice [3]; intra-rectal challenge): diminished weight loss
Cyp1a1 transcripts in IEC in vivo (C57Bl/6 mice [3]; [13]): induction of Cyp1a1
Mttp transcripts in IEC in vivo (C57Bl/6 mice [3]; [13]): Decreased Mttp levels
inflammation in animals under GF conditions (C57Bl/6 mice [3]; germ free animals): induce inflammation
weight loss in GF animals compared to SPF animals (C57Bl/6 mice [3]; germ free vs SPF, intra-rectal challenge): increased weight loss
histopathology in GF animals (C57Bl/6 mice [3]; germ free, intra-rectal challenge): severe histopathology
Th1 and Th2 cytokines (IL-13, IFN-γ) from colon explants (C57Bl/6 mice [3]; [14]): induction of both Th1 and 2 cytokines
histological pathology of the colon (C57Bl/6 mice [3]; [14]): CD1d-dependent pathology was observed
metabolite that D5-Trp was further metabolized to upon stimulation (IECs): xanthurenic acid
IDO1 enzymatic activity (human IDO1(hIDO1)): IDO1 activators
anti-gyrase activity (DNA gyrase): no anti-gyrase activity
compound induced reduction of cell surface CD1d lipid antigen loading when AhR expression is silenced (MODE-K cells [4]): reversed

CCO/C=C1\N=C(c2ccccc2)OC1=O [oxazolone, 4-ethoxymethylene-2-phenyl-2-oxazolin-5-one]
compound induced inhibition of CD1d-restricted IL-10 production when AhR expression is silenced (MODE-K cells [1]): reversed
CD1d-restricted IL-10 production (MODE-K cells [1]; [10]): no longer attenuated
CD1d-restricted IL-10 production (MODE-K cells [1]; MODE-K pre-conditioned with compound, loaded with α-GC, co-culture with 24.7 iNKT hybridoma): attenuated IL-10 production; also recorded: limited
epithelial derived IL-10 (MODE-K cells [1]; co-culture with autoreactive iNKT cell hybridoma (24.8)): suppressed
epithelial derived IL-10 (MODE-K cells [1]; co-culture with autoreactive non-invariant dNKT cell hybridoma (14S.6)): suppressed
IL-10 production (MODE-K cells [1]): decreased IL-10 production
decrease of IL-10 production when AhR was silenced (MODE-K cells [1]): reduced when AhR was silenced
CD1d-restricted IL-10 production (MODE-K cells [1]; [11]): attenuation of CD1d-restricted IL-10 production
Ido1 transcripts (MODE-K cells [2]; [12]): induction; also recorded: induced expression of these genes in vitro and in vivo
Mttp transcripts (MODE-K cells [2]; [12]): down-regulation
Ido1 transcripts [5]: increased transcripts
Mttp transcripts [5]: decreased transcripts
cyp1a1 transcripts [5]: increased transcripts
ability of IDO1 to convert tryptophan to formyl-kyneurenine (recombinant IDO1): enhanced
compound induced inhibition of IL-10 production in hepatocytes from Ahr−/− mice (primary hepatocytes): resistance
IFN-γ production [6]: not affected
inflammation in animals under GF conditions (C57Bl/6 mice [7]): induce inflammation
IL-10 production in colonic explants (C57Bl/6 mice [3]): elevated IL-10 production
host protection, disease manifestations (C57Bl/6 mice [3]; intra-rectal challenge): conferred host protection
weight loss (C57Bl/6 mice [3]; intra-rectal challenge): diminished weight loss
effect of skin pre-sensitization with the other compound (oxazolone or TMO) on rectal responses (C57Bl/6 mice [3]; topical sensitization followed by intra-rectal challenge): did not affect
metabolite that D5-Trp was further metabolized to upon stimulation (IECs): kyneurenic acid
AhR transcriptional activity [8]: induced robust AhR transcriptional activity
CD1d protein expression or distribution between intracellular and cell surface pools (MODE-K cells [9]): did not display altered CD1d protein expression or distribution
compound induced reduction of cell surface CD1d lipid antigen loading when AhR expression is silenced (MODE-K cells [4]): reversed
loading of α-GC on CD1d at the cell surface (L363 staining) (MODE-K cells [4]; MODE-K cells conditioned with compound): decreased loading of α-GC on CD1d at the cell surface; also recorded: decreased cell surface staining
